Legend:
Assay type in all cases: in vivo
[1] = test system: fall armyworm larvae (Spodoptera frugiperda); assay: Spodoptera frugiperda spray test; conditions: 168 h, application rate 100 g/ha, after 7 days, maize leaf sections
Procedure: Spodoptera frugiperda—Spray Test
(§1) To produce a suitable preparation of active compound, 1 part by weight of active compound is mixed with the stated amount of solvents and is diluted with water, containing an emulsifier concentration of 1000 ppm, to the desired concentration. Further test concentrations are prepared by dilution with emulsifier containing water.
Maize (Zea mays) leaf sections are sprayed with a preparation of the active ingredient of the desired concentration. Once dry, the leaf sections are infested with fall armyworm larvae (Spodoptera frugiperda).
After 7 days mortality in % is determined. 100% means all caterpillars have been killed and 0% means none of the caterpillars have been killed.

[2] = test system: larvae of the banded cucumber beetle (Diabrotica balteata); assay: Diabrotica balteata spray test; conditions: 168 h, after 7 days, wheat seeds, read-out: activity (efficacy: seedlings grown); for pest or weed control at 32 µg/disc, 100 g/ha: application rate 100 g/ha (=32 μg/well); for pest or weed control at 160 µg/disc, 500 g/ha: application rate 500 g/ha (=160 μg/well)
Procedure: Diabrotica balteata—Spray Test
as §1, with “solvent,” for “solvents”, “and the concentrate” for “and”
Soaked wheat seeds (Triticum aestivum) are placed in a multiple well plate filled with agar and some water and are incubated for 1 day to germinate (5 seeds per well). The germinated wheat seeds are sprayed with a test solution containing the desired concentration of the active ingredient. Afterwards each unit is infected with 10-20 larvae of the banded cucumber beetle (Diabrotica balteata).
After 7 days efficacy in % is determined. 100% means all the seedlings have grown up like in the untreated, uninfected control; 0% means none of the seedlings have grown.

[3] = test system: green peach aphid (Myzus persicae); assay: Myzus persicae oral test; conditions: 120 h, read-out: activity (mortality)
Procedure: Solvent: 100 parts by weight acetone
To produce a suitable preparation of active compound, 1 part by weight of active compound is mixed with the stated amount of solvent, and the concentrate is diluted with water to the desired concentration.
50 μL compound solution is filled in microtiter plates and 150 μL IPL41 insect medium (33%+15% sugar) is added to obtain a total volume of 200 μL per well. Afterwards the plates are sealed with parafilm through which a mixed population of the green peach aphid (Myzus persicae) can suck on the compound preparation.
After 5 days mortality in % is determined. 100% means all aphids have been killed and 0% means none of the aphids have been killed.

[4] = test system: Rhipicephalus (Boophilus) microplus larvae (strain Parkhurst, resistant against synthetic pyrethroids); assay: Rhipicephalus (Boophilus) microplus in-vitro contact test, larval cattle tick; conditions: after 48 hours, read-out: activity (efficacy: larvae dead or moribund); for pest or weed control at 1 µg/cm2, 100 g/ha: application rate 1 μg/cm^2 (=100 g/ha); for pest or weed control at 5 µg/cm2, 500 g/ha: application rate 5 μg/cm^2 (=500 g/ha)
Procedure: Rhipicephalus (Boophilus) microplus—In-Vitro Contact Tests Larval Cattle Tick (Strain Parkhurst, Resistant Against Synthetic Pyrethroids)
(§2) 9 mg compound is solved in 1 ml acetone and diluted with acetone to the desired concentration. 250 μL of the test solution is filled in 25 mL glass test tubes and homogeneously distributed on the inner walls by rotation and tilting on a shaking device (2 h at 30 rpm). With a compound concentration of 900 ppm, an inner surface of 44.7 cm^2 and a homogeneous distribution, a dose of 5 μg/cm^2 is achieved.
After the solvent has evaporated, each test tube is filled with 20-50 cattle tick larvae (Rhipicephalus microplus), closed with a perforated lid and incubated in a horizontal position at 85% relative humidity and 27° C. in an incubator. After 48 hours efficacy is determined. The larvae are patted on the ground of the tubes and negative geotactic behavior is recorded.
An efficacy of 100% means all larvae are dead or moribund; 0% means no larvae are dead or moribund.

[5] = test system: adult cat fleas (Ctenocephalides felis); assay: Ctenocephalides felis in-vitro contact test, adult cat flea; conditions: application rate 5 μg/cm^2 (=500 g/ha), after 48 hours, read-out: activity (efficacy: fleas dead or moribund)
Procedure: Ctenocephalides felis—In-Vitro Contact Tests Adult Cat Flea
as §2, with “mL” for “ml”
After the solvent has evaporated, each test tube is filled with 5-10 adult cat fleas (Ctenocephalides felis), closed with a perforated lid and incubated in a lying position at room temperature and relative humidity. After 48 hours efficacy is determined. The fleas are patted on the ground of the tubes and are incubated on a heating plate at 45-50° C. for at most 5 minutes. Immotile or uncoordinated moving fleas, which are not able to escape the heat by climbing upwards, are marked as dead or moribund.
An efficacy of 100% means all fleas are dead or moribund; 0% means no fleas are dead or moribund.

| SMILES | pest or weed control at 32 µg/disc, 100 g/ha [2] | pest or weed control at 1 µg/cm2, 100 g/ha [4] | pest or weed control at 5 µg/cm2, 500 g/ha [4] | further results |
| --- | --- | --- | --- | --- |
| C[C@@H]1CN(C(=O)c2cnc(-n3ncnc3[C@H](C)NC(=O)c3cc(C(F)(F)F)cc(C(F)(F)F)c3)nc2)C[C@H](C)O1 [Example I-146] | 100% |  |  | mortality at 100 g/ha [1]: 100% |
| C[C@H](NC(=O)c1cc(Cl)cc(C(F)(F)F)c1)c1ncnn1-c1ccc(C(=O)N2[C@@H](C)CCC[C@@H]2C)cn1 [Example I-39] |  |  |  | pest or weed control at 160 µg/disc, 500 g/ha [2]: 100% |
| CON(C)C(=O)c1cnc(-n2nc(C)nc2[C@H](C)NC(=O)c2cc(C(F)(F)F)cc(C(F)(F)F)c2)s1 [Example I-97] | 100% | 100% | 100% | mortality at 4 ppm [3]: 100% |
| C[C@H](NC(=O)c1cc(Cl)cc(S(=O)(=O)C(F)(F)F)c1)c1ncnn1-c1ccc(N2CCOCC2)cn1 [Example I-105] | 100% | 100% | 100% | mortality at 100 g/ha [1]: 83% |
| C[C@H](NC(=O)c1cc(C(F)(F)F)cc(C(F)(F)F)c1)c1ncnn1-c1ccc(S(=O)(=O)N2CCOCC2)cn1 [Example I-127, N-[(1S)-1-{1-[5-(morpholin-4-ylsulfonyl)pyridin-2-yl]-1H-1,2,4-triazol-5-yl}ethyl]-3,5-bis(trifluoromethyl)benzamide] |  | 100% | 100% |  |
| C[C@H](NC(=O)c1cc(C(F)(F)F)cc(C(F)(F)F)c1)c1ncnn1-c1ccc(C(=O)NC2CCSCC2)cn1 [Example I-113] |  | 100% | 100% | mortality at 4 ppm [3]: 100% |
| CC(NC(=O)c1cc(Br)cc(Br)c1)c1nc(Br)nn1-c1ccc(C(=O)N2CCOCC2)cn1 (stereo not drawn) [Example I-85] |  | 100% | 100% |  |
| C[C@H](NC(=O)c1cc(C(F)(F)F)cc(C(F)(F)F)c1)c1ncnn1-c1cnc(C(=O)N2CCCC2)cn1 [Example I-144] | 100% |  |  | mortality at 100 g/ha [1]: 100% |
| Cc1nc([C@H](C)NC(=O)c2cc(OC(F)(F)F)cc(C3CC3)c2)n(-c2ncc(C(=O)N3CCOCC3)s2)n1 [Example I-137] |  |  |  | mortality at 100 g/ha [1]: 100% |
| Cc1nc([C@H](C)NC(=O)c2cc(C(F)(F)F)cc(C(F)(F)F)c2)n(-c2ccc(C(=O)N3CCOCC3c3ccnn3C)cn2)n1 (stereo partly drawn) [Example I-101] |  | 80% | 80% | mortality at 100 g/ha [1]: 100%; pest or weed control at 5 µg/cm2 [5]: 80% |
| CC1CCN(C(=O)c2ccc(-n3ncnc3[C@H](C)NC(=O)c3cc(C(F)(F)F)cc(C(F)(F)F)c3)nc2)CC1 [Example I-73] | 100% | 100% | 100% |  |
| C[C@H](NC(=O)c1cc(Br)cc(Br)c1)c1ncnn1-c1ccc(N2CCOCC2)cn1 [Example I-103] | 100% | 90% | 100% |  |
| C[C@H](NC(=O)c1cc(Cl)cc(C(F)(F)F)c1)c1ncnn1-c1ccc(S(=O)(=O)N2CCOCC2)cn1 [Example I-123] | 80% | 100% | 100% |  |
| C[C@H](NC(=O)c1cc(C(F)(F)F)cc(C(F)(F)F)c1)c1ncnn1-c1ccc(C(=O)NC2CCOCC2)cn1 [Example I-111] |  | 100% | 100% | mortality at 4 ppm [3]: 90% |
| C[C@@H]1CN(C(=O)c2ccc(-n3nc(C4CC4)nc3[C@H](C)NC(=O)c3cc(Cl)cc(S(=O)(=O)C4CC4)c3)nc2)C[C@H](C)O1 [Example I-91] | 100% |  |  | mortality at 100 g/ha [1]: 100% |
| C[C@H](NC(=O)c1cc(Cl)cc(S(C)(=O)=O)c1)c1ncnn1-c1ccc(C(=O)N2CCOCC2)cn1 [Example I-119] |  |  |  | mortality at 4 ppm [3]: 100% |
| Cc1nc([C@H](C)NC(=O)c2cc(OC(F)(F)F)cc(C3CC3)c2)n(-c2ccc(C(=O)N3CCOC[C@@H]3C)cn2)n1 [Example I-129] |  | 100% | 100% | pest or weed control at 5 µg/cm2 [5]: 100% |
| CC(NC(=O)c1cc(F)cc(C#N)c1)c1nc(C(F)F)nn1-c1ccc(C(=O)N2CCOCC2)cn1 (stereo not drawn) [Example I-60] | 100% |  |  | pest or weed control at 160 µg/disc, 500 g/ha [2]: 100% |
| C[C@H](NC(=O)c1cc(OC(F)(F)F)cc(C2CC2)c1)c1ncnn1-c1ccc(S(=O)(=O)N2CCOCC2)cn1 [Example I-125] | 100% | 100% | 100% | pest or weed control at 160 µg/disc, 500 g/ha [2]: 100% |
| C[C@@H]1CN(C(=O)c2cnc(-n3ncnc3[C@H](C)NC(=O)c3cc(OC(F)(F)F)cc(S(C)(=O)=O)c3)cn2)C[C@H](C)O1 [Example I-142] |  |  |  | mortality at 100 g/ha [1]: 100% |
| C[C@H](NC(=O)c1cc(C(F)(F)F)cc(C(F)(F)F)c1)c1ncnn1-c1ccc(C(=O)NC2CC(C)(C)OC(C)(C)C2)cn1 [Example I-64] | 100% | 90% | 80% |  |
| C[C@H](NC(=O)c1cc(Cl)cc(C(F)(F)F)c1)c1ncnn1-c1ccc(N2CCCCC2=O)cn1 [Example I-57] |  |  |  | mortality at 4 ppm [3]: 90% |
| Cc1nc([C@H](C)NC(=O)c2cc(C(F)(F)F)cc(C(F)(F)F)c2)n(-c2ccc(C(=O)N3CCC(C)CC3)cn2)n1 [Example I-74] | 100% | 90% | 90% |  |
| Cc1nc([C@H](C)NC(=O)c2cc(Cl)cc(C(F)(F)F)c2)n(-c2ccc(C(=O)N3CC(O)C3)cn2)n1 [Example I-21] |  |  |  | mortality at 4 ppm [3]: 100% |
| C[C@H](NC(=O)c1cc(C(F)(F)F)cc(C(F)(F)F)c1)c1ncnn1-c1ccc(N2CCOCC2=O)cn1 [Example I-128, N-[(1S)-1-{1-[5-(3-oxomorpholin-4-yl)pyridin-2-yl]-1H-1,2,4-triazol-5-yl}ethyl]-3,5-bis(trifluoromethyl)benzamide] |  | 100% | 100% | mortality at 4 ppm [3]: 100% |
| C[C@H](NC(=O)c1cc(Cl)cc(S(C)(=O)=O)c1)c1ncnn1-c1ccc(C(=O)N2CCS(=O)(=O)CC2)cn1 [Example I-96] |  |  |  | mortality at 4 ppm [3]: 100% |
| C[C@H](NC(=O)c1cc(C(F)(F)F)cc(C(F)(F)F)c1)c1ncnn1-c1ccc(N2CCOCC2)cn1 [Example I-44, N-[(1S)-1-{1-[5-(morpholin-4-yl)pyridin-2-yl]-1H-1,2,4-triazol-5-yl}ethyl]-3,5-bis(trifluoromethyl)benzamide] | 100% | 100% | 100% | mortality at 100 g/ha [1]: 100% |

From patent publication US20230058623A1, “NOVEL HETEROARYL-TRIAZOLE COMPOUNDS AS PESTICIDES” (Bayer Aktiengesellschaft, priority 2019, published 2023)
